Experiments:
CDC25B = target: T1, CDC25B (Homo sapiens, UniProt P30305); assay: CDC25B enzyme assay; type: biochemical; conditions: catalytic domain of CDC25B (aa 378-566) GST fusion, 20 μm FDP, 1 hour at room temperature, fluorescence
T1 construct: Catalytic domain of CDC25B (aa 378-566) was expressed and produced in E. coli into a GST fusion protein; GST; made in house; host or cells: E. coli
T1 sequence (P30305 378-566 isoform P30305-2): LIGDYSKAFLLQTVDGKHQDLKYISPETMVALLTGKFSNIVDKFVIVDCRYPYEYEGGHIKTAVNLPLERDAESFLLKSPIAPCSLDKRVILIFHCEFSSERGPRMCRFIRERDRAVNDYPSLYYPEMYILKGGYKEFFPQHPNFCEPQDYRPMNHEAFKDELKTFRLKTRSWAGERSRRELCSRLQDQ
Description: Catalytic domain of CDC25B (aa 378-566) was expressed and produced in E. coli into a GST fusion protein, which was used as zymogen. Enzyme assay was carried out on a 96-well plate, with the final reaction volume per well adjusted to 200 μL. 170 μL of a buffer solution (30 mM Tris buffer, pH 8.5, 75 mM NaCl, 0.67 mM EDTA, 1 mM DTT), 20 μL (0.2 μg) of CDC25B enzyme and 10 μL of the test compound dissolved in DMSO were added, so that the final concentration became 1 μg/mL CDC25B and 20 μm FDP. Measurement was made after culturing at room temperature for 1 hour. FDP and DTT were added to the buffer solution just before assay, so that a fresh status could be maintained. After 1 hour of culturing, fluorescence resultant from the enzymatic reaction was measured at 485 nm (excitation) and 538 nm (emission).
The screened compound was treated to a final concentration of 1, 2, 5 and 10 μm to obtain the % inhibition value. If the inhibitory effect was low (less than 50% at […]), the concentration of the compound was increased to 20 μm and the % inhibition value and the IC50 value were obtained.

A549 = assay: Cell cytotoxicity assay (SRB), A549; type: cell-based; conditions: Homo sapiens, A549, 10 μM, 48 hours, read-out: % of inhibition of growth of cancer cells
Description: (§1) A549, HT29 and MCF-7 were used to measure anticancer activity. The cancer cells were those distributed from the National Cancer Institute (NCI) of the U.S. and cultured by the Korea Research Institute of Chemical Technology (KRICT), which had been derived from human tumor cell lines. The cells were cultured in a 5% CO2 incubator at 37° C. with constant temperature and humidity using RPMI 1640 culture medium fortified with 5% fetal bovine serum. Subculturing was carried out once in 3-4 days. A PBS (phosphate buffered saline) solution in which 0.25% trypsin and […] trans-1,2-diaminocyclohexane-N,N,N,N-tetraacetic acid (CDTA) were dissolved was used to separate the cells.
(§2) The SRB (sulforhodamine B) assay method, which was developed in 1989 to measure in vitro anticancer activity of drugs by the NCI, was used. The cells were separated using a trypsin-CDTA solution and were plated on a 96-well microplate (Falcon), about 2×10^3 cells per each well. The cells were cultured in a CO2 incubator for 24 hours and were attached to the bottom of the plate. After removing the culture medium using an aspirator, each of Compound No. 78, Compound No. 79 and Doxorubicin, a control drug, diluted in a culture medium was added to the wells containing the cells, with a log dose of 6 equivalents, 3 times, […] at one time. The cells were cultured for 48 more hours. If required, dimethylsulfoxide (DMSO) was used to dissolve the compounds. The diluted compound solutions were filtered through a […] filter before being added to the cells. […] Then, absorbance was measured at 520 nm using a microplate reader. In order to quantify the anticancer effect of the compounds, number of cells was counted for the cases where the drug was added (Tz), the cells were cultured for 48 hours with a culture medium containing no drug (C) and the cells were cultured for 48 hours with a culture medium containing the drug (T). Anticancer activity was calculated by the following equations 1 and 2. […]

HT29 = assay: Cell cytotoxicity assay (SRB), HT29; type: cell-based; conditions: Homo sapiens, HT-29, HT29, 10 μM, 48 hours, read-out: % of inhibition of growth of cancer cells
Description: as §1, §2

MCF-7 = assay: Cell cytotoxicity assay (SRB), MCF-7; type: cell-based; conditions: Homo sapiens, MCF7, MCF-7, 10 μM, 48 hours, read-out: % of inhibition of growth of cancer cells
Description: as §1, §2

[1] = test system: C33A human uterine cancer cell line
Description: In order to verify the in vivo anticancer effect of the compounds of the present invention, C33A human uterine cancer cell line was subcutaneously injected at the abdominal walls of 6- to 8-week-old male nude mice. […] For a positive control, cisplatin (4 mg/kg), which is widely used as an anticancer agent in clinical tests, was used. The dosage given was 0.25 mL per each administration once a day for a period of 7 consecutive days. The volume of the tumor was calculated by the following equation 3, by measuring the long and short axes with a caliper. Tumor volume=(Short axis,mm)^2×(Long axis,mm)×0.523 Equation 3

IC50 (CDC25B) [nM]	negative responses (reduced motion, lack of appetite) ([1]; mouse, in vivo)	SMILES	inhibition at 10 µM (A549) [%]	inhibition at 10 µM (HT29) [%]	inhibition at 10 µM (MCF-7) [%]	anticancer activity (tumor volume) ([1]; C33A tumor in male nude mice, into the abdominal cavity once a day for 7 days, FIG. 1, cisplatin 4 mg/kg positive control)
2260	did not shows any negative responses	CCOc1ccc(-c2nn(-c3ccccc3)cc2C=C2SC(=O)N(C)C2=O)cc1Br [Compound 78, 5-[3-(3-bromo-4-ethoxy-phenyl)-1-phenyl-1H-pyrazol-4-ylmethylene]-3-methyl-thiazolidine-2,4-dione]	67.5	59.7	67.3	comparable to that of cisplatin
1410		CCOc1ccc(-c2nn(-c3ccccc3)cc2C=C2SC(=O)N(CC)C2=O)cc1Br [Compound 79, 5-[3-(3-bromo-4-ethoxy-phenyl)-1-phenyl-1H-pyrazol-4-ylmethylene]-3-ethyl-thiazolidine-2,4-dione]	39.1	82.4	31.1	
		COc1cccc2c1C(=O)c1c(O)c3c(c(O)c1C2=O)C[C@@](O)(C(=O)CO)C[C@@H]3O[C@H]1C[C@H](N)[C@H](O)[C@H](C)O1 [Doxorubicin, reference compound]	39	51.1	63.2	
